The text below walks through data of ChEMBL document CHEMBL3632583, “Haenamindole, an unusual diketopiperazine derivative from a marine-derived Penicillium sp. KCB12F005” (Bioorg Med Chem Lett, 2015).

Activity calls are given as the source filed them. The rule behind the calls is not given here. Bounds are passed on as bounds.

One experiment has as its system K562. Description: Cytotoxicity against human K562 cells after 96 hrs by WST method. The note with it: K562, 96 h. The class given is functional, cell-based.
Another experiment relates to Bacillus cereus. In words: Antimicrobial activity against Bacillus cereus at 50 ug/disk after 48 hrs by paper disk method. The class given is functional, organism-based.
The next experiment concerns Escherichia coli. Description: Antimicrobial activity against Escherichia coli at 50 ug/disk after 48 hrs by paper disk method. In kind it is functional, organism-based.
Another experiment concerns HeLa. Description: Cytotoxicity against human HeLa cells after 96 hrs by WST method. The class given is functional, cell-based.
A further experiment relates to Salmonella enteritidis. Description: Antimicrobial activity against Salmonella enteritidis at 50 ug/disk after 48 hrs by paper disk method. In kind it is functional, organism-based. To be noted: Salmonella enterica subsp. enterica serovar Enteritidis.
For a further experiment, the system named is HL-60. Description: Cytotoxicity against human HL60 cells after 96 hrs by WST method. In kind it is functional, cell-based. To be noted: HL-60, 96 h.
A further experiment has as its system Staphylococcus aureus. Description: Antimicrobial activity against Staphylococcus aureus at 50 ug/disk after 48 hrs by paper disk method. In kind it is functional, organism-based.
A short description of experiment [1]: Cytotoxicity against human Hep3B cells after 96 hrs by WST method. In kind it is functional, cell-based, Hep 3B2.

Take `O=C1N[C@@H](Cc2ccccc2)C(=O)N(O)[C@@H]1C[C@]1(O)c2ccccc2N2C(=O)C[C@@H](c3ccccc3)N[C@H]21`: the IC50 (in the experiment with K562; in the experiment on HeLa; in the experiment with HL-60; in experiment [1]) was > 85 µM throughout. Besides, the outcome in the experiment with Bacillus cereus, in the experiment with Escherichia coli, in the experiment on Salmonella enteritidis and with Staphylococcus aureus was inactive.
